Test results reported in patent US4360663A, “Steroid hormone-antitumor derivatives” (Kureha Kagaku Kogyo Kabushiki Kaisha, priority 1978, dated 1982).

Experiments:
[1] = tested on: human breast cancer cells having steroid hormone receptor; test: Antitumor test (in vivo), human breast cancer cells implanted in BALB/C-nu/nu mice; details: tumors excised day 25
Protocol: Pieces of human breast cancer cells having steroid hormone receptor was subcutaneously implanted under the arm of mice (BALB/C-nu/nu) (5 week age) to form solid tumors. After the solid tumors were established, each dispersion or solution of the active ingredient in olive oil was administered by oral dose or intraperitoneal injection each other day for 10 times or every days for 20 times. Twenty five days from the initial administration, the tumors were excised. Efficiency of inhibition of tumor proliferation was measured from (A) each average weight of excised tumors for 10 mice (the active ingredient was administrated) and (B) each average weight of excised tumors for 10 control mice. [formula]
(§1) The tests (1), (2), (3) for various active ingredients were carried out.

[2] = tested on: estrogen sensitive cells (uterus of rabbit); test: Binding function to estrogen sensitive cells (3H-estradiol replacement, uterus of rabbit); details: 100 nM sample; smaller value = higher binding; 54-56% at 0 nM
Protocol: Binding function of the active ingredients to estrogen sensitive cells.
The binding function of the active ingredient to tumor cells was tested by the method described in Biochemical Experiment text Hormone (I) (Nippon Seikagaku) (Tokyo Kagakudojin page 217-252, April 25, 1977).
Estradiol labelled by tritium (^3 H) was incubated with uterus of rabbit to bind it and then, the sample was added to the system to measure the amount of free ^3 H-estradiol which was replaced by the added estradiol. The results are shown as the binding ^3 H-estradiol(%) in the cases adding […] of the sample.

[3] = tested on: estrogen sensitive cells (uterus of rabbit); test: as above; details: 10 nM sample; smaller value = higher binding; 54-56% at 0 nM
[4] = Acute toxicity (LD50), ICR-JCL female mice, Litchfield-Wilcoxon graph method; details: mouse, in vivo, one dose, in olive oil, after 7 days
Protocol: In the measurement of LD50, eight ICR-JCL female mice (5 week age) were used as one group to breed in a transparent polycage, and each drug was dissolved in olive oil and administrated by routes of intraperitoneal injection (i.p.), oral administration (p.o.) and subcutaneous injection (s.c.), to the mice at one dose and then, their value of LD50 by Litchfield-Wilcoxon graph method is obtained after 7 days.
as §1

Structure (SMILES) | Inhibitory effect of tumor, efficiency ([1]; i.p., 5 mg/kg) [%] | Inhibitory effect of tumor, efficiency ([1]; p.o., 10 mg/kg) [%] | Inhibitory effect of tumor, efficiency ([1]; p.o., 50 mg/kg) [%] | Binding 3H-estradiol [2] [%] | Binding 3H-estradiol [3] [%] | LD50 at 168 h ([4]; ip) [mg/kg] | LD50 at 168 h ([4]; po) [mg/kg] | Inhibitory effect of tumor, efficiency ([1]; i.p., 10 mg/kg) [%] | Inhibitory effect of tumor, efficiency ([1]; i.p., 20 mg/kg) [%] | Inhibitory effect of tumor, efficiency ([1]; p.o., 40 mg/kg) [%] | Inhibitory effect of tumor, efficiency ([1]; i.p., 1 mg/kg) [%] | Inhibitory effect of tumor, efficiency ([1]; i.p., 3 mg/kg) [%]
CN(Cc1cnc2nc(N)nc(N)c2n1)c1ccc(C(=O)N[C@@H](CCC(=O)OCC(=O)O[C@H]2CC[C@H]3[C@@H]4CCc5cc(O)ccc5[C@H]4CC[C@]23C)C(=O)OCC(=O)O[C@H]2CC[C@H]3[C@@H]4CCc5cc(O)ccc5[C@H]4CC[C@]23C)cc1 [Test No. 9 (Table 17), bis 3-hydroxy-1,3,5(10)-estratriene-17β-oxycarbonylmethyl-4-amino-N^10-methylpteroylglutamate] | 98 | 80 | 93 | 19 | 35 | > 235 | > 3000 |  |  |  |  | 
COc1cccc2c1C(=O)c1c(O)c3c(c(O)c1C2=O)C[C@@](O)(C(C)=O)C[C@@H]3O[C@H]1C[C@H](N)[C@H](O)[C@H](C)O1 [compound 4] |  |  |  | 56 | 56 |  |  |  |  |  |  | 
CO[C@H]1O[C@H](CO)[C@@H](O)[C@H](O)[C@H]1NC(=O)N(CCCl)N=O [compound 3] |  |  |  | 55 | 55 |  |  |  |  |  |  | 
C[C@]12CC[C@@H]3c4ccc(O)cc4CC[C@H]3[C@@H]1CC[C@@H]2OC(=O)Cn1cc(F)c(=O)[nH]c1=O [Test No. 7 (Table 17), 3-hydroxy-1,3,5(10)-estratriene-17β-[5-fluoro-2,4-dioxo-pyrimidin-1-yl]acetate] |  |  |  | 25 | 36 | > 605 | > 2000 | 90 | 100 |  |  | 
C[C@]12CC[C@@H]3c4ccc(O)cc4CC[C@H]3[C@@H]1CC[C@@H]2O [compound 1] |  |  |  | 16 | 36 |  |  |  |  |  |  | 
CN(N=O)C(=O)N[C@H]1C(O)O[C@H](C(=O)OCC(=O)O[C@H]2CC[C@H]3[C@@H]4CCc5cc(O)ccc5[C@H]4CC[C@]23C)[C@@H](O)[C@@H]1O (stereo partly drawn) [Test No. 6 (Table 17), 3-hydroxy-1,3,5(10)-estratriene-17β-[2-(N'-methyl-N'-nitrosoureido)-2-deoxy-D-glucuronoyloxy]acetate] | 92 | 77 |  | 16 | 28 | > 660 | > 1000 | 97 |  | 84 |  | 
O=c1[nH]cc(F)c(=O)[nH]1 [compound 8] |  |  |  | 53 | 55 |  |  |  |  |  |  | 
CO[C@H]1O[C@H](C(=O)OCC(=O)O[C@H]2CC[C@H]3[C@@H]4CCc5cc(O)ccc5[C@H]4CC[C@]23C)[C@@H](O)[C@H](O)[C@H]1NC(=O)N(CCCl)N=O [compound 2] |  | 79 |  | 30 | 45 | > 180 | > 1000 |  |  | 82 | 90 | 92
